# Source: patent publication US10487045B2, “Adamantane derivative and use thereof” (TOHOKU UNIVERSITY, priority 2016, dated 2019)
# How the values were obtained:
# [1] = test system: olfactory bulbectomized mice (OBX mice); test: Cognitive function tests (Y-maze, new object recognition, fear conditioning, LTP) in olfactory bulbectomized mice; assay type: in vivo; conditions: chronic administration (2 weeks)
# [2] = molecular target: T1, Kir6.2 channel (Mus musculus, UniProt Q61743); test: Calcium imaging method (Fura2) in Kir6.2 channel-overexpressing cells; assay type: cell-based
# T1 construct: expressed in transfected cells; host or cells: Neuro2A (N2A) cells, transient transfection with pcDNA3.1-Kir6.2 (gift of Dr. Toru Ishizuka, Tohoku University)
# T1 sequence (Q61743 1-390): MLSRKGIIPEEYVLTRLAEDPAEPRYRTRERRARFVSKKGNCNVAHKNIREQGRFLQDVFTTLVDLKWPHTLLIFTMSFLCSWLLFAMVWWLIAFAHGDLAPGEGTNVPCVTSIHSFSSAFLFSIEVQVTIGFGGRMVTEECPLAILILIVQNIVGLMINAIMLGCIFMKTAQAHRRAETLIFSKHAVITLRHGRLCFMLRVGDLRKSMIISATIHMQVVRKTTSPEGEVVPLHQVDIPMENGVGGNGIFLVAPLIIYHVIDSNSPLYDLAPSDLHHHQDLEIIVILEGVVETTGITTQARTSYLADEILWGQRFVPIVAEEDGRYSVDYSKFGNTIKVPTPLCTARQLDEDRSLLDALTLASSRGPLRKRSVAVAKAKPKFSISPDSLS
# Description: Using the same Kir6.2 channel-overexpressing cells as in Test Example 1, the amount of calcium that flows into cells from outside the cells by TP-014 treatment was measured by a calcium imaging method. The calcium imaging method is a method of measuring the amount of calcium based on the intensity of fluorescence of cultured nerve cells, which are treated in a culture solution containing a calcium fluorescent dye (Fura2, manufactured by Dojindo Laboratories) in a concentration of 4 μM. Imaging was carried out by an imaging apparatus (LAMBDA10-2, manufactured by SUTTER INSTRUMENT) in accordance with the manual attached to the apparatus.
# [3] = test system: APP23 mice; test: New object recognition test in Alzheimer's disease model mice; assay type: in vivo; conditions: APP23 mice 12 month-old, administered for two months
# Description: The new object recognition test method is carried out as follows. Two identical shape building blocks are placed in a mouse cage and mice are allowed to play for 10 minutes (this is referred to as a training trial). One hour later, one of the building blocks was replaced with a different-shaped building block. Since normal mice show interest on a new object, they play a longer time with the different-shaped building block. The Alzheimer's disease (model) mice, since the mice fail to recognize the new object (building block), are seemed to have memory disturbance. Mice are allowed to freely play for further 5 minutes with two building blocks different in shape (this is referred to as retention trial). In the training trial and retention trial, the number of times a mouse is in contact with each of the two objects was counted. The ratio (%) of the number of contact times to the different-shaped building block to the total number of contact times in the retention trial was calculated and used as a discrimination index.
# [4] = test system: CaMKIV defective mice; test: Tail-suspension and forced swim methods in CaMKIV defective mice; assay type: in vivo
# Description: OBX mice were originally established as depression model mice although a deterioration of cognitive function was observed. Depression was analyzed by a tail-suspension method (a) and a forced swim method (b). The tail-suspension method is a method of pinching the tail of a mouse and hanging the mouse upside down. If the mouse hung has depression, immobility time is long. Since a normal mouse moves even if it is hung, the immobility time is short. In the forced swim method, a mouse is forced to swim in water in a beaker. A mouse having depression neither swims nor moves (just floating). Thus the immobility time is measured. Immobility time was long in OBX mice both in the tail-suspension method (a) and the forced swim method (b). The immobility time of a TP-014 chronic administration group (2 weeks, in the same administration method as that previously mentioned) was improved.
# CaMKIV induced by Kir6.1 channel was analyzed by using CaMKIV defective mice (n=5, per group*) in the same manner as in FIG. 12. Acceleration of depression-like symptom was observed also in the CaMKIV defective mice. […] TP-014 had no effect on CaMKIV depression-like symptom (increase of immobility time). […] CaMKIV defective mice were obtained from professor, Hiroyuki Sakagami, Kitasato University School of Medicine (Takao K et al., PLoS One 2010, 5, e9460).
# [5] = test system: Kir6.2 channel deficient mice; test: Cognitive function tests and LTP in Kir6.2 channel deficient mice; assay type: in vivo; conditions: chronic treatment (two months)
# Excerpt: To confirm that TP-014 action is Kir6.2 channel inhibitory action, the action site of TP-014 was identified by the same behavioral experiment as in FIG. 4 (FIG. 8a and FIG. 8b: Y-maze test, FIG. 8c: new object recognition test method, FIG. 8d: fear conditioning test method, FIG. 8e to FIG. 8g: LTP improvement evaluation, n=5 per group) using Kir6.2 channel deficient mice. It was confirmed that cognitive dysfunction is induced in Kir6.2 defective mice. […] It was also shown that memory disturbance and LTP attenuation of Kir6.2 defective mice are not improved by TP-014 chronic treatment (two months). […] The analytical methods are the same as in Test Examples 4 to 7. Note that, Kir6.2 defective mice were obtained from Professor Susumu Seino, School of Medicine of Kobe University (Miki T et al., Proc. Natl. Acad. Sci. U.S.A. 1998, 95, 10402-10406).
structure (smiles),measurement,setting,value
"O=C(N[C@@H](c1ccccc1)[C@H]1[C@H]2C[C@@H]3C[C@](Cl)(C2)C[C@@]1(OC(=O)C(F)(F)F)C3)C(F)(F)F [TP-014, (1S,2R,3S,5S,7S)-5-chloro-2-((R)-phenyl(2,2,2-trifluoroacetamido)methyl)adamantan-1-yl 2,2,2-trifluoroacetate]",cognitive dysfunction of OBX mice,[1],significantly improved
same,calcium concentration increasing effect compared with memantine,[2]; TP-014 1-100 nM vs memantine 100 nM,larger calcium concentration increasing effect than memantine
same,amount of calcium within cells,"[2]; TP-014 1-100 nM, 4 minutes after treatment, Kir6.2 channel-overexpressing cells",significantly increased
same,"cognitive function, new object recognition test (discrimination index)",[3],effectively improved
same,depression-like symptom (increase of immobility time) in CaMKIV defective mice,[4],no effect
same,memory disturbance and LTP attenuation of Kir6.2 defective mice,[5],not improved
